In PubChem BioAssay (NCI):
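Briefly, cells in 96-well plates were exposed to five compound concentrations for 48 h, and endpoints were estimated by linear interpolation. TGI denotes the concentration required for complete inhibition of growth.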

Assays:
Experiment in all cases: inhibition of tumour cell growth, NCI panel, 48 h
[1] = test system: NCI-H522 lung
[2] = test system: NCI-H23 lung
[3] = test system: RPMI-8226 leukemia
[4] = test system: NCI/ADR-RES ovarian
[5] = test system: M14 melanoma
[6] = test system: SF-539 CNS
[7] = test system: HOP-62 NSCLC
[8] = test system: ACHN renal
[9] = test system: SK-MEL-28 melanoma
[10] = test system: T-47D breast
[11] = test system: OVCAR-4 ovarian
[12] = test system: RXF 393 renal
[13] = test system: HCT-116 colon
[14] = test system: TK-10 renal
[15] = test system: NCI-H460 lung
[16] = test system: MDA-MB-435
[17] = test system: DU-145 prostate
[18] = test system: COLO 205 colon
[19] = test system: MDA-MB-231 breast
[20] = test system: 786-0 renal
[21] = test system: CAKI-1 renal
[22] = test system: K-562 leukemia
[23] = test system: UO-31 renal
[24] = test system: OVCAR-8 ovarian
[25] = test system: HCT-15 colon
[26] = test system: A498 renal
[27] = test system: SK-MEL-2 melanoma
[28] = test system: MDA-N
[29] = test system: OVCAR-3 ovarian
[30] = test system: PC-3 prostate
[31] = test system: SN12C renal
[32] = test system: MCF7 breast
[33] = test system: UACC-62 melanoma
[34] = test system: HOP-92 NSCLC
[35] = test system: KM12 colon
[36] = test system: SR leukemia
[37] = test system: A549 NSCLC
[38] = test system: U251 CNS
[39] = test system: SW-620 colon
[40] = test system: SF-295 CNS
[41] = test system: HT29 colon
[42] = test system: MOLT-4 leukemia
[43] = test system: HCC-2998 colon
[44] = test system: SNB-19 CNS
[45] = test system: MALME-3M melanoma
[46] = test system: SK-MEL-5 melanoma
[47] = test system: SF-268 CNS
[48] = test system: OVCAR-5 ovarian
[49] = test system: SK-OV-3 ovarian

Measured: TGI

CCOC(=O)[C@@]12C3C=CC(CC3)[C@]1(C(=O)c1ccccc1)C(=O)C(=O)N2c1ccccc1 (some centres undefined)
> 100 µM: all assays above
